Reference: publication PMC10793205, “Differential transmetallation of complexes of the anti-cancer thiosemicarbazone, Dp4e4mT: effects on anti-proliferative efficacy, redox activity, oxy-myoglobin and oxy-hemoglobin oxidation” (Chemical Science, 2023)
“Also recorded” adds a separate entry of the source.

What was measured:
Type in all cases: biochemical
H2DCF = experiment: Redox activity: H2DCF oxidation to DCF (cell-free, L-cysteine/H2O2); details: for DCF fluorescence (H2DCF oxidation) of agent alone: 10 μM, pH 7.4 and pH 5, no added CuCl2; for DCF fluorescence (H2DCF oxidation) after addition of CuCl2: 10 μM complex + CuCl2, pH 7.4 and pH 5
Method: Redox activity in cells was examined using an established in vitro method examining 2′,7′-dichlorodihydrofluorescein (H2DCF) oxidation to fluorescent 2′,7′-dichlorofluorescein (DCF) at cytosolic pH (pH 7.4 using HBSS buffer) relative to lysosomal pH (pH 5; acetate buffer; Fig. 5).[25,26,28,42,46] To these buffers containing the complexes, L-cysteine (100 μM) was added as a reducing agent, followed by H2DCF (5 μM). Then, hydrogen peroxide (H2O2; 100 μM) was added to initiate hydroxyl radical generation. Both [Cu(DpC)Cl2] and [Cu(DpC)2] were used as positive controls due to their documented redox activity.[28,42] In contrast, the ligand, DpC, was implemented as a negative control, as it is redox inert.[28,42] As an additional control, the established Cu chelator, tetrathiomolybdate (TM), was utilized to remove Cu from the thiosemicarbazone complexes to indicate its role in their redox activity.[27,28,42] Additionally, UV-vis spectroscopy (300–700 nm) of the same solution for each complex was also performed to understand both the oxidation of H2DCF and the formation of fluorescent DCF upon excitation at 503 nm (Fig. S20A–F and S21A–F ^†). […]
ROS Generation Analysis with H 2DCF-DA
The generation of reactive oxygen species (ROS) was assessed by examining the oxidation of H2DCF.2, 8, 13, 14 Solutions containing CuCl2, TM, DpC, Dp4e4mT, [Fe(DpC)2]+, [Cu(DpC)Cl2], [Cu(DpC)2] and the Dp4e4mT complexes were prepared at a concentration of 10 µM in either HBSS (pH 7.4) or 150 mM acetate buffer (pH 5) to simulate the conditions of the cytosol and lysosome, respectively.2, 8, 14, 15 The H2DCF was prepared by deacetylation of DCFH-DA (Sigma-Aldrich) through alkaline hydrolysis using NaOH. 16
In these prepared solutions, L-cysteine (100 µM) was added as a reducing agent and then H2DCF (5 µM) added. The initiation of hydroxyl radical generation was achieved by the addition of hydrogen peroxide (H2O2; 100 µM). As a comparative benchmark, HBSS or acetate buffer containing L-cysteine, H2DCF, and H2O2, but lacking ligands or metal complexes, was employed as a control. Fluorescence measurements were carried out using a CLARIOstar Plus microplate reader (BMG LABTECH, Australia) with an excitation wavelength of 485 nm and an emission wavelength of 530 nm. 8, 14

oxy-Mb = target: T1, oxy-Mb (Homo sapiens, UniProt P02144); experiment: Oxidation of purified oxy-Mb to met-Mb (UV-vis); details: 10 μM agent, oxy-Mb 40 μM; for oxy-Mb oxidation (met-Mb generation): 3 h incubation, 20 °C; for oxy-Mb oxidation (in words): 1–3 h/20 °C
T1 sequence (P02144 1-154): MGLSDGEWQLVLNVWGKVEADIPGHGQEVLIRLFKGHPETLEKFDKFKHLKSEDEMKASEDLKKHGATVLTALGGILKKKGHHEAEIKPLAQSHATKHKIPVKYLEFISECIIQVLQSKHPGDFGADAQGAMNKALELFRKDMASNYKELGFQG
Text: (§1) As such, it was important to examine the effect of the Dp4e4mT complexes on oxy-Hb and oxy-Mb oxidation (Fig. 6 and 7). Comparisons were made to three controls, namely DFO, Dp44mT, and DpC, as well as their Fe(III) complexes. […] In contrast, the Fe(III) complexes of Dp44mT and DpC were positive controls, as they induce oxidation of oxy-Mb.[28,39,42]
Fig. 6 (A and B) Investigation of the effects of Dp4e4mT and its Fe(III), Co(III), Ni(II), Cu(II), Zn(II), Ga(III), and Pd(II) complexes versus the positive controls DFO, Dp44mT, DpC and their Fe(III) complexes (10 μM) on met-Mb generation (% zero time) after an incubation of 1–3 h/20 °C with purified oxy-Mb (40 μM). Results are mean ± SD (3 experiments).
(§2) Spectroscopic Examination of Met-Mb and Met-Hb Formation from Oxy-Mb and Oxy- […]
(§3) Oxy-Mb and oxy-Hb solutions were prepared following established protocols.8, 17 In brief, solutions of reduced Mb and Hb in PBS (pH 7.2) were prepared by adding 1.2 mL of Na2S2O4 (12 mM) to 38 mL of met-Mb and met-Hb solution (40 μM). 17 Subsequently, oxy-Mb and oxy-Hb were generated by gently passing 150 mL of oxygen (from an air-filled syringe) through the solution containing reduced Mb and Hb, effectively eliminating any residual Na2S2O4. Following this, the oxy-Mb and oxy-Hb solutions were passed through a PD-10 column prepacked with 8.3 mL of Sephadex G-25 and equilibrated with PBS (pH 7.2). 17 In experiments examining the activity of the agents, all complexes were dissolved in 1,2-propanediol, then diluted to 10 µM in PBS (pH 7.2). The experiments were conducted over incubations of 0 to 3 h with the agents. UV-Vis spectra covering the range of 300 to 700 nm were recorded at a temperature of 20°C using a Shimadzu UV−Vis spectrophotometer (UV-1800; Shimadzu, Kyoto, Japan). Concentrations of met-Mb and met-Hb, as well as reduced-Mb and reduced-Hb, were determined at 409 nm and 435 nm, respectively. Concentrations of oxy-Mb and oxy-Hb were determined at 544 nm and 582 nm, respectively. 17

oxy-Hb = oxy-Hb (Homo sapiens, UniProt P68871+P69905); experiment: Oxidation of purified oxy-Hb to met-Hb (UV-vis); details: 10 μM agent, oxy-Hb 40 μM, 1–3 h/20 °C
Text: as §1
Fig. 7 (A and B) Investigation of the effects of Dp4e4mT and its Fe(III), Co(III), Ni(II), Cu(II), Zn(II), Ga(III), and Pd(II) complexes versus DFO, Dp44mT, DpC and their Fe(III) complexes (10 μM) on met-Hb generation (% zero time) after an incubation of 1–3 h/20 °C with purified oxy-Hb (40 μM). (C) Investigation of the effects of Dp4e4mT and its Fe(III), Co(III), Ni(II), Cu(II), Zn(II), Ga(III), or Pd(II) complexes relative to the positive controls DFO, Dp44mT, DpC, and their Fe(III) complexes (10 μM) on oxy-Hb oxidation in intact human erythrocytes after a 3 h/37 °C incubation. Results are mean ± SD (3 experiments).
as §2, §3

[1] = listed as Dp4e4mT Co(III) complex
[2] = listed as Dp4e4mT Pd(II) complex

Chain of oxy-Hb (P69905 2-142 limits assumed): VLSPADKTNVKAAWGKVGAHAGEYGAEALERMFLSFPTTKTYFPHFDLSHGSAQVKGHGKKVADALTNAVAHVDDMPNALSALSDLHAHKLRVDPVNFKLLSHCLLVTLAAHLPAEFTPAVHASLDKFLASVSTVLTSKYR
Chain of oxy-Hb (P68871 2-147 limits assumed): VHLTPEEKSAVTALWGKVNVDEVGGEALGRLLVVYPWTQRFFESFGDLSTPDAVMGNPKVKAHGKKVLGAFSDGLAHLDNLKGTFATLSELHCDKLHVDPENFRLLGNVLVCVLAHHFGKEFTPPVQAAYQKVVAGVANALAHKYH

| Structure (SMILES) | DCF fluorescence (H2DCF oxidation) of agent alone (H2DCF) | oxy-Mb oxidation (met-Mb generation) (oxy-Mb) | DCF fluorescence (H2DCF oxidation) after addition of CuCl2 (H2DCF) | oxy-Hb oxidation, purified oxy-Hb (in words) (oxy-Hb) | oxy-Mb oxidation (in words) (oxy-Mb) | other results |
| --- | --- | --- | --- | --- | --- | --- |
| CCN(C)C(=S)NN=C(c1ccccn1)c1ccccn1 [Dp4e4mT, di-2-pyridylketone-4-ethyl-4-methyl-3-thiosemicarbazone] | did not significantly (p > 0.05) increase DCF fluorescence | 140 % of the control |  |  |  |  |
| CN(C)C(=S)NN=C(c1ccccn1)c1ccccn1 [Dp44mT, di-2-pyridylketone 4,4-dimethyl-3-thiosemicarbazone, reference compound] |  | 129 % of the control |  |  |  |  |
| CN(C(=S)NN=C(c1ccccn1)c1ccccn1)C1CCCCC1 [DpC, di-2-pyridylketone 4-cyclohexyl-4-methyl-3-thiosemicarbazone, reference compound] | did not significantly (p > 0.05) increase DCF fluorescence |  |  |  |  |  |
| CCN(C)C([S-])=NN=C(c1ccccn1)c1ccccn1.CCN(C)C([S-])=NN=C(c1ccccn1)c1ccccn1.[Co+3] [[Co(Dp4e4mT)2]^+] |  |  | not significantly (p > 0.05) different to CuCl2 alone | minimal impact | minimal impact | oxy-Hb oxidation, purified oxy-Hb (in words) (oxy-Hb; [1]): low levels of oxy-Hb oxidation; oxy-Mb oxidation (in words) (oxy-Mb; [1]): no appreciable oxidation of oxy-Mb |
| CCN(C)C([S-])=NN=C(c1ccccn1)c1ccccn1.[Cl-].[Cu+2] [[Cu(Dp4e4mT)Cl]] | greatest efficacy at increasing DCF fluorescence |  |  | lowest ability to oxidize oxy-Mb and oxy-Hb | did not significantly lead to oxidation of oxy-Mb |  |
| CCN(C)C([S-])=NN=C(c1ccccn1)c1ccccn1.CCN(C)C([S-])=NN=C(c1ccccn1)c1ccccn1.[Fe+3] [[Fe(Dp4e4mT)2]^+] | markedly and significantly (p < 0.0001) less redox active | 213 % of the control | markedly and significantly (p < 0.0001–0.001) increased DCF fluorescence |  |  |  |
| CCN(C)C([S-])=NN=C(c1ccccn1)c1ccccn1.CCN(C)C([S-])=NN=C(c1ccccn1)c1ccccn1.[Ga+3] [[Ga(Dp4e4mT)2]^+] |  |  | markedly and significantly (p < 0.0001–0.001) increased DCF fluorescence | significantly increased oxy-Mb and oxy-Hb oxidation | significantly increased oxy-Mb and oxy-Hb oxidation | oxy-Mb oxidation (in words) (oxy-Mb; listed as Dp4e4mT Ga(III) complex): induced marked oxy-Mb oxidation |
| CCN(C)C([S-])=NN=C(c1ccccn1)c1ccccn1.CCN(C)C([S-])=NN=C(c1ccccn1)c1ccccn1.[Ni+2] [[Ni(Dp4e4mT)2]] |  |  | markedly and significantly (p < 0.0001–0.001) increased DCF fluorescence | minimal impact | low activity; also recorded: minimal impact | oxy-Hb oxidation, purified oxy-Hb (in words) (oxy-Hb; listed as Dp4e4mT Ni(II) complex): low levels of oxy-Hb oxidation |
| CCN(C)C([S-])=NN=C(c1ccccn1)c1ccccn1.[Cl-].[Pd+2] [[Pd(Dp4e4mT)Cl]] |  |  | approximately half | minimal impact | minimal impact | oxy-Hb oxidation, purified oxy-Hb (in words) (oxy-Hb; [2]): low levels of oxy-Hb oxidation; oxy-Mb oxidation (in words) (oxy-Mb; [2]): no appreciable oxidation of oxy-Mb |
| CCN(C)C([S-])=NN=C(c1ccccn1)c1ccccn1.CCN(C)C([S-])=NN=C(c1ccccn1)c1ccccn1.[Zn+2] [[Zn(Dp4e4mT)2]] |  |  | markedly and significantly (p < 0.0001–0.001) increased DCF fluorescence | significantly increased oxy-Mb and oxy-Hb oxidation | significantly increased oxy-Mb and oxy-Hb oxidation | oxy-Mb oxidation (in words) (oxy-Mb; listed as Dp4e4mT Zn(II) complex): induced marked oxy-Mb oxidation |
